Measured values as given in patent US8067600B2, “Histone deacetylase inhibitors and methods of use thereof” (Georgetown University, priority 2003, dated 2011).
Where two headings read alike, the source gives them in different places.

Tests used:
SQ-20B cells [1] = test system: SQ-20B cells
Experimental: (§3) For each concentration indicated, individual T25 flasks were seeded with the following number of SQ-20B cells: for no drug, 10 μM and 50 μM drug concentrations, separate T25 flasks were each seeded with 100 cells; for 100 μM and 300 μM drug concentrations, separate T25 flasks were each seeded with 200 cells each; and for 500 μM and 1 mM drug concentrations, separate T25 flasks were each seeded with 300 cells each. A Levy Hemacytometer (Hausser Scientific) was used to count the cells in stock suspension. Serial dilutions of stock suspension were performed to obtain the proper concentration for cell seeding. To conduct the cytotoxicity study the SQ20B cells were first seeded under the appropriate treatment specifications and allowed to settle for 24 hr in a tissue culture incubator set at 37° C. and 5% CO2. Cells were treated with their corresponding drugs for 24 hr and then washed with three rinses of PBS (10 mL per rinse) and provided with new media. The cells were then further incubated for colony formation and the colonies were stained using a staining solution consisting of: 5 g Crystal Violet, 700 mL methanol and 300 mL dH2O. The flasks were then destained with three rinses in cold water. After the third rinse the stained colonies were counted and the corresponding IC50 for each drug was calculated.

HDAC [2] = test: HDAC activity inhibition assay, HeLa nuclear extracts, Fluor de Lys substrate; type: biochemical; conditions: HeLa nuclear extract, 37° C., 15 min, read-out: 50% HDAC activity inhibition
Experimental: For each test sample the corresponding assay reaction was performed in triplicate. […] For the selected Compounds of the Invention, samples at the following concentrations were prepared and tested: 1 μM, 5 μM, 10 μM, 100 μM and 1 mM.

SQ-20B cells [3] = test: Radiation clonogenic survival assay (radiation sensitization); type: cell-based, human; parameters: α / β: unit not given here; conditions: drug at IC50 concentration for 24 h, then graded gamma radiation; for α / β: linear quadratic model; for Do in SQ-20B Cells (Gy): single hit multi-target model, Do without sensitizer 2.4 Gy
Experimental: To test the ability of the Compounds of the Invention to sensitize cells to radiation, we used radiation resistant squamous carcinoma cell line, SQ-20B, for initial radiosensitization experiments. SQ-20B is extremely resistant to ionizing radiation (Do=2.4 Gy in the absence of radiation sensitizers). Briefly, logarithmically growing SQ-20B cells were treated with a drug compound at the IC50 concentration (determined using the clonogenic survival assay illustrated in Example 21) for 24 h and then exposed to graded dose of gamma radiation. Clonogenic survivals were determined and fit to the single hit multi-target and the linear quadratic models.
The shape of radiation survival curves are determined by using either the single-hit multitarget model or the linear-quadratic model. The multitarget model is used to describe the radiation sensitivity of cells defined by the terminal slope of the radiation survival curve, which is referred to as Do. The steeper the slope, the smaller is the value of Do and the more radiation sensitive is the cellular response. Alternatively, a less steep slope results in a larger Do and a more resistant radiation response. The linear-quadratic model is also used to describe the radiation sensitivity defined by two components to cell killing by radiation: one is proportional to dose (αD) and the other is proportional to the square of the dose (βD^2). Thus, the dose at which the linear and quadratic components are equal is the ratio α/β.
Shown in Table 4 are the results of selected compounds of the invention in the radiation clonigenic survival assay.

SQ-20B cells [4] = test: Cytotoxicity in SQ-20B cells (colony formation); conditions: read-out: Cytotoxicity in SQ-20B cells (IC50); 24 hr drug treatment, colony formation
Experimental: as §3

HDAC [5] = test: In vitro HDAC inhibitory activity using fluor-Lys as the substrate (BIOMOL); type: biochemical; conditions: for IC50: read-out: 50% HDAC Activity Inhibition
Experimental: The in vitro HDAC inhibitory activity of these compounds was determined by using fluor-Lys as the substrate (BIOMOL).

[6] = test system: human breast cancer cells (MCF-7); test: Cytotoxicity following 24 h exposure, MCF-7 (FIG. 2); type: cell-based; conditions: breast carcinoma cells (MCF-7)
Experimental: (§1) FIG. 2 depicts graphically the cytotoxicities of various compounds of the invention following 24 h exposure of human breast cancer cells (MCF-7) and squamous cancer cells (SQ-20B).
(§2) To test the biological effects of the compounds of this and the previous Example, cytotoxicities were determined following 24 h exposure of human breast cancer cells (MCF-7) and squamous cancer cells (SQ-20B) to three compounds (4g, 4c and 10a). FIG. 2.

[7] = test system: squamous cancer cells (SQ-20B); test: Cytotoxicity following 24 h exposure, SQ-20B (FIG. 2); type: cell-based, human; conditions: squamous carcinoma cells (SQ-20B)
Experimental: as §1, §2

[8] = Cytotoxicity in SQ-20B cells (colony formation); conditions: human, SQ-20B squamous carcinoma cells
Experimental: as §3

Compound | IC50 (HDAC [2]) [µM] | α (SQ-20B cells [3]) | β (SQ-20B cells [3]) | Do in SQ-20B Cells (Gy) (SQ-20B cells [3]) | IC50 (HDAC [5]; fluor-Lys substrate (BIOMOL)) [µM] | further results
4-[3-(4-Dimethylamino-benzyl)-ureido]-N-hydroxy-butyramide [Compound 2] | 0.8 | 0.1681 | 0.03301 | 1.62 | – | IC50 (SQ-20B cells [1]): 50 µM
5-[3-(4-dimethylamino-benzyl)-ureido]-pentanoic Acid Hydroxyamide [Compound 3] | 0.8 | 0.2420 | 0.02486 | 1.72 | – | IC50 (SQ-20B cells [4]): 25 µM
CN(C)c1ccc(C(=O)NCCCNC(=O)CS)cc1 [Compound 4a, 4-Dimethylamino-N-[3-(2-mercapto-acetylamino)-propyl]-benzamide] | – | – | – | – | 0.8 | –
CN(C)c1ccc(C(=O)NCCCCNC(=O)CS)cc1 [Compound 4b, 4-Dimethylamino-N-[4-(2-mercapto-acetylamino)-butyl]-benzamide] | – | – | – | – | 4.7 | –
CN(C)c1ccc(C(=O)NCCCCCNC(=O)CS)cc1 [Compound 4c, 4-Dimethylamino-N-[5-(2-mercapto-acetylamino)-pentyl]-benzamide] | – | – | – | – | – | cytotoxicities (in words) [6]: dose-dependent cytotoxicities; cytotoxicities (in words) [7]: dose-dependent cytotoxicities; IC50 (HDAC [5]): 0.2 µM
CN(C)c1ccc(C(=O)NCCCCCCNC(=O)CS)cc1 [Compound 4d, 4-Dimethylamino-N-[6-(2-mercapto-acetylamino)-hexyl]-benzamide] | – | – | – | – | 0.45 | –
O=C(CS)NCCCNC(=O)c1ccc(-c2ccccc2)cc1 [Compound 4e, Biphenyl-4-carboxylic acid [3-(2-mercapto-acetylamino)-propyl]-amide] | – | – | – | – | 0.8 | –
O=C(CS)NCCCCNC(=O)c1ccc(-c2ccccc2)cc1 [Compound 4f, Biphenyl-4-carboxylic acid [4-(2-mercapto-acetylamino)-butyl]-amide] | – | – | – | – | 13 | –
O=C(CS)NCCCCCNC(=O)c1ccc(-c2ccccc2)cc1 [Compound 4g, Biphenyl-4-carboxylic acid [5-(2-mercapto-acetylamino)-pentyl]-amide] | – | – | – | – | 0.55 | –
O=C(CS)NCCCCCNC(=O)c1ccccc1 [Compound 4h, N-[5-(2-Mercapto-acetylamino)-pentyl]-benzamide] | – | – | – | – | 1.1 | –
O=C(CS)NCCCCCCNC(=O)c1ccccc1 [Compound 4i, N-[6-(2-Mercapto-acetylamino)-hexyl]-benzamide] | – | – | – | – | 0.9 | –
O=C(CS)NCCCCCCNC(=O)CS [Compound 4j, 2-Mercapto-N-[6-(2-mercapto-acetylamino)-hexyl]-acetamide] | – | – | – | – | 10 | –
CN(C)c1ccc(C(=O)NCc2ccc(CNC(=O)CS)cc2)cc1 [Compound 4k, 4-Dimethylamino-N-{4-[(2-mercapto-acetylamino)-methyl]-benzyl}-benzamide] | – | – | – | – | 0.2 | in vitro HDAC inhibitory activity (in words) (HDAC [5]; fluor-Lys substrate (BIOMOL)): comparable HDAC inhibitory activity
O=C(CS)NCCCCCNC(=O)c1cnc2ccccc2c1 [Compound 4l, Quinoline-3-carboxylic acid [5-(2-mercapto-acetylamino)-pentyl]-amide] | – | – | – | – | 0.25 | –
O=C(CS)NCCCCCNC(=O)c1cccc2cccnc12 [Compound 4m, Quinoline-8-carboxylic acid [5-(2-mercapto-acetylamino)-pentyl]-amide] | – | – | – | – | 0.4 | –
CN(C)c1ccc(CNC(=O)NCCCCCCC(=O)NO)cc1 [Compound 5, 7-[3-(4-dimethylamino-benzyl)-ureido]-heptanoic Acid Hydroyxamide] | 1 | 0.1978 | 0.02561 | 1.78 | – | IC50 at 24 h [8]: 50 µM
CN(C)c1ccc(CNC(=O)NCCCCCCCC(=O)NO)cc1 [Compound 6, 8-[3-(4-dimethylamino-benzyl)-ureido]-octanoic Acid Hydroxyamide] | 0.7 | 0.2846 | 0.01761 | 1.94 | – | IC50 at 24 h [8]: 50 µM
CN(C)c1ccc(NC(=O)NCCCCCCC(=O)NO)cc1 [Compound 7, 7-[3-(4-dimethylamino-phenyl)-ureido]-heptanoic Acid Hydroxyamide] | 0.7 | 0.1391 | 0.03335 | 1.57 | – | IC50 at 24 h [8]: 10 µM
O=C(CCCCCNC(=O)NC12CC3CC(CC(C3)C1)C2)NO [Compound 8, 6-(3-Adamantan-1-yl-ureido)-hexanoic Acid Hydroxyamide] | 0.8 | 0.2378 | 0.02282 | 1.78 | – | IC50 at 24 h [8]: 50 µM
O=C(CS)NCCCCCNC(=O)Nc1ccccc1 [Compound 9, 2-Mercapto-N-[5-(3-phenyl-ureido)-pentyl]-acetamide] | 0.9 | – | – | – | – | –
O=C(CS)NCCCCCCNC(=O)Nc1ccccc1 [Compound 10, 2-Mercapto-N-[6-(3-phenyl-ureido)-hexyl]-acetamide] | 0.9 | 0.1135 | 0.01558 | 2.54 | – | IC50 at 24 h [8]: 50 µM
O=C(CS)NCCCCCNC(=O)NCc1ccccc1 [Compound 11, N-[5-(3-benzyl-ureido)-pentyl]-2-mercapto-acetamide] | 1.6 | – | – | – | – | –
O=C(CS)NCCCCCCNC(=O)c1ccccc1 [Compound 21] | 1.6 | – | – | – | – | –
CN(C)c1ccc(C(=O)NCCCCCCNC(=O)CS)cc1 [Compound 22] | 0.8 | – | – | – | – | –
O=C(CS)NCCCCCNC(=O)c1ccc(-c2ccccc2)cc1 [Compound 23] | 0.75 | – | – | – | – | –
CN(C)c1ccc(C(=O)NCCCCCNC(=O)CS)cc1 [Compound 24] | 0.8 | – | – | – | – | –
O=C(CS)NCCCCCNC(=O)c1ccccc1 [Compound 25] | 1 | – | – | – | – | –
O=C(CCCCCCC(=O)Nc1ccccc1)NO [SAHA, suberoylanilide hydroxamic acid, reference compound] | – | 0.01197 | 0.03152 | 1.88 | – | –
CC(/C=C/C(=O)NO)=C\[C@@H](C)C(=O)c1ccc(N(C)C)cc1 [TSA, 7-(4-(dimethylamino)phenyl)-n-hydroxy-4,6-dimethyl-7-oxo-2,4-heptadienamide, reference compound] | – | 0.1260 | 0.03059 | 1.65 | – | IC50 at 24 h [8]: 0.2 µM
